Test results taken from patent US7022699B2, “Cyclohexenyl phenyl diazepines vasopressin and oxytocin receptor modulators” (Wyeth, priority 2001, dated 2006).

These molecules were tested against T1, human oxytocin receptor (Homo sapiens, UniProt P30559) (assay: Oxytocin binding in CHO cell membranes expressing human oxytocin receptors ([3H]oxytocin)). Details: 100 nM, values without parentheses, read-out: OT % inhibition @ 100 nM.
T1 construct: host or cells: CHO cells, stably transfected (pcDNA3.1 vector); membranes
T1 sequence (P30559 1-389): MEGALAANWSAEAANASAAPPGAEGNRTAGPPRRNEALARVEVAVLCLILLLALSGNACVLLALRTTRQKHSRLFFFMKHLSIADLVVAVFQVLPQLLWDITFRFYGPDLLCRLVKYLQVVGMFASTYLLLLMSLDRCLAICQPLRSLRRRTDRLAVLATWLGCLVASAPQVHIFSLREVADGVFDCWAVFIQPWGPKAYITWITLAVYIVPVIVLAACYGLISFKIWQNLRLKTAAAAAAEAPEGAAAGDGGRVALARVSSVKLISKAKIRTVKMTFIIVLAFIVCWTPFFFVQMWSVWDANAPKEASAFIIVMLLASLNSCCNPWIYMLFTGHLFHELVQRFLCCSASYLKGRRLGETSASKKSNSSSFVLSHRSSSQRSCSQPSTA
Excerpt: Oxytocin Binding in Chinese Hamster Ovary Cell Membranes Expressing Human Oxytocin Receptors
Chinese Hamster Ovary (CHO) cells stably transfected with the human oxytocin (cf. Tanizawa et al., U.S. Pat. No. 5,466,584 (1995) to Rohto Pharmaceutical Co. Ltd., Osaka, Japan) were obtained from M. Thibonnier, Case Western Reserve University School of Medicine, Cleveland, Ohio. A. Passaging and Amplification of Cells: CHO cells transfected with the human oxytocin receptors obtained from M. Thibonnier (pcDNA3.1 vector) are allowed to grow to confluency (approx. >90%) in T-150 flasks under sterile conditions, in a cell culture medium of F-12 Nutrient Mixture (HAM) with L-glutamine (Gibco Cat. #11765-054) containing 15 mM HEPES (Gibco Cat. #15630-080), 1% antibiotic/antimycotic (add 5 mL 100×, Gibco Cat. #15240-062 per 500 mL F-12), 400 μg/mL of Geneticin (add 4 mL of 50 mg/mL per 500 mL F-12) and 10% Fetal Bovine Serum (Qualified, heat inactivated, Gibco Cat. #16140-063). The medium is removed by aspiration and the cells are washed with 10 mL of Hank's Balanced Salt solution (Gibco Cat. #14175-095). The salt solution is removed by aspiration and the cells trypsinized with 5 mL of trypsin-EDTA (0.05% trypsin, 0.53 mM EDTA-4Na, Gibco Cat. #25300-070) for 1 min. The trypsin is removed by aspiration and the cells dislodged by tapping. Cell Culture medium (e.g. 30 mL for 1:30 split) is immediately added and mixed well to inactivate trypsin. 1 mL of detached cells is added to new culture flasks containing fresh Cell Culture medium (e.g. into 25 mL per T-150 flask), and mixed gently. The cells are incubated at 37° C. in 5% CO2. The medium is changed at 3 to 4 days interval (or as appropriate). The cells grow to confluency (approx. >75%–95%) within 7–8 days. All steps are done under sterile conditions. B. Membrane Preparation: The cells are washed twice gently with Hank's Balanced Salt solution (e.g., use 10 mL per T-150 flask). The excess is removed and the cells bathed for 15–30 min. in an enzyme-free Cell Dissociation Buffer (e.g., use 8 mL Hank's Based, Gibco Cat. #13150-016 per T-150 flask) until cells are loosened. The contents are transferred to centrifuge tubes (50 mL size) kept in ice bath. All subsequent steps are done at 4° C. The tubes are centrifuged at 300×g for 15 min (1380 rpm on SORVAL, Model RT6000D, using rotor for 50 mL tubes). The supernatant is discarded and the cells suspended in homogenizing buffer (10 mM Tris-HCl containing 0.25 M sucrose and 1 mM EDTA, pH 7.4) ensuring that the volume of the buffer is about ten times the volume of the cell pellet. The cells are pooled into a centrifuge tube (50 mL) and homogenized with Polytron at setting 6 for 10 sec. The homogenate is transferred into a Potter-Elvjehm homogenizer and homogenized with 3 strokes. The homogenate is centrifuged at 1500×g for 10 min at 4° C. (3100 rpm using SORVAL, model RT6000D, using rotor for 50 mL tubes). The pellet. is discarded. The supernatant is centrifuged at 100,000×g for 60 min. at 4° C. (Beckman L8-80M ultracentrifuge; spin at 37,500 rpm with rotor type 70 Ti for 50 mL tubes; 38,000 rpm with type 80Ti for 15 mL tubes; or 35,800 rpm with rotor type 45Ti). The supernantant is discarded and the pellet suspended in 3 to 4 mL of Tris buffer (50 mM TRIS-HCl, pH 7.4). The protein content is estimated by the Bradford or Lowry method. The volume of the membrane suspension is adjusted with the membrane buffer (50 mM Tris-HCl containing 0.1% BSA and 0.1 mM PMSF) to give 3.0 mg/mL (or as appropriate) of protein. The membranes are aliquoted and stored at −70° C. C. Radioligand Binding Assay: In wells of a 96-well format microliter plate, is added 90, 110 or 130 μL (to make up a final volume of 200 μL) of assay buffer containing 50 mM of Tris-HCl (pH 7.4), […], 1 mg % aprotinin, 1 mg % leupeptin, 2 mg % 1,10-phenanthroline, 10 mg % trypsin inhibitor, and 0.1 mM PMSF. The inhibitors are added on the day of the experiment. […]

Row | inhibition at 0.1 µM | SMILES
1 | 70% | O=C1C=C(c2ccc(C(=O)N3Cc4cccn4Cc4ccccc43)cc2)CCC1 [Example 24, 3-[4-(10,11-Dihydro-5H-pyrrolo[2,1-c][1,4]benzodiazepine-10-carbonyl)-phenyl]-cyclohex-2-en-1-one]
2 | 30% | Cc1cc(C(=O)N2Cc3cccn3Cc3ccccc32)ccc1C1=CC(C)(C)CC(C)(C)C1 [Example 37, (10,11-Dihydro-5H-pyrrolo[2,1-c][1,4]benzodiazepin-10-yl)-[3-methyl-4-(3,3,5,5-tetramethyl-cyclohex-1-en-1-yl)-phenyl]-methanone]
3 | 7% | CC1(C)C=C(c2ccc(C(=O)N3Cc4cccn4Cc4ccccc43)cc2)CC(C)(C)C1 [Example 23, (10,11-Dihydro-5H-pyrrolo[2,1-c][1,4]benzodiazepin-10-yl)-[4-(3,3,5,5-tetramethyl-cyclohex-1-en-1-yl)-phenyl]-methanone]
4 | 47% | CC1=C(c2ccc(C(=O)N3Cc4cccn4Cc4ccccc43)cc2)C(C)CCC1 (stereo not shown) [Example 19, (10,11-Dihydro-5H-pyrrolo[2,1-c][1,4]benzodiazepin-10-yl)-[4-(2,6-dimethyl-cyclohex-1-en-1-yl)-phenyl]-methanone]
5 | 27% | CC1=C(c2ccc(C(=O)N3Cc4cccn4Cc4ccccc43)c(Cl)c2)CCCC1O (stereo not shown) [Example 14, (10,11-Dihydro-5H-pyrrolo[2,1-c][1,4]benzodiazepin-10-yl)-[2-chloro-4-(3-hydroxy-2-methyl-cyclohex-1-en-1-yl)-phenyl]-methanone]
6 | 56% | CC1=C(c2ccc(C(=O)N3Cc4cccn4Cc4ccccc43)cc2C)C(C)CCC1 (stereo not shown) [Example 33, (10,11-Dihydro-5H-pyrrolo[2,1-c][1,4]benzodiazepin-10-yl)-[4-(2,6-dimethyl-cyclohex-1-en-1-yl)-3-methyl-phenyl]-methanone]
7 | 46% | CC1=C(c2ccc(C(=O)N3Cc4cccn4Cc4ccccc43)cc2C)CCCC1=O [Example 4, 3-[2-Methyl-4-(5H-pyrrolo[2,1-c][1,4]benzodiazepin-10(11H)-yl-carbonyl)phenyl]-2-methyl-cyclohex-2-en-1-one]
8 | 96% | CC1=C(c2ccc(C(=O)N3Cc4cccn4Cc4ccccc43)cc2)CCCC1O (stereo not shown) [Example 27, (10,11-Dihydro-5H-pyrrolo[2,1-c][1,4]benzodiazepin-10-yl)-[4-(3-hydroxy-2-methyl-cyclohex-1-en-1-yl)-phenyl]-methanone]
9 | 74% | CC1(C)CCCC=C1c1ccc(C(=O)N2Cc3cccn3Cc3ccccc32)c(Cl)c1 [Example 12, (10,11-Dihydro-5H-pyrrolo[2,1-c][1,4]benzodiazepin-10-yl)-[2-chloro-4-(6,6-dimethyl-cyclohex-1-en-1-yl)-phenyl]-methanone]
10 | 81% | Cc1cc(C(=O)N2Cc3cccn3Cc3ccccc32)ccc1C1=CCCCC1C (stereo not shown) [Example 29, (10,11-Dihydro-5H-pyrrolo[2,1-c][1,4]benzodiazepin-10-yl)-[3-methyl-4-(6-methyl-cyclohex-1-en-1-yl)-phenyl]-methanone]
11 | 98% | CC1=C(c2ccc(C(=O)N3Cc4cccn4Cc4ccccc43)c(Cl)c2)CCCC1=O [Example 13, (10,11-Dihydro-5H-pyrrolo[2,1-c][1,4]benzodiazepin-10-yl)-[2-chloro-4-(2-methyl-3-oxo-cyclohex-1-en-1-yl)-phenyl]-methanone]
12 | 67% | CC1=C(c2ccc(C(=O)N3Cc4cccn4Cc4ccccc43)cc2C)CCCC1N (stereo not shown) [Example 45, [4-(3-Amino-2-methyl-cyclohex-1-en-1-yl)-3-methyl-phenyl]-(10,11-dihydro-5H-pyrrolo[2,1-c][1,4]benzodiazepin-10-yl)-methanone]
13 | 96% | CC1=C(c2ccc(C(=O)N3Cc4cccn4Cc4ccccc43)cc2C)CCC[C@@H]1O (single isomer, unassigned) [Example 43]
14 | 67% | Cc1cc(C(=O)N2Cc3cccn3Cc3ccccc32)ccc1C1=CCCCC1(C)C [Example 30, (10,11-Dihydro-5H-pyrrolo[2,1-c][1,4]benzodiazepin-10-yl)-[4-(6,6-dimethyl-cyclohex-1-en-1-yl)-3-methyl-phenyl]-methanone]
15 | 65% | O=C(c1ccc(C2=CCCc3ccccc32)cc1Cl)N1Cc2cccn2Cc2ccccc21 [Example 11, (10,11-Dihydro-5H-pyrrolo[2,1-c][1,4]benzodiazepin-10-yl)-[2-chloro-4-(3,4-dihydro-naphthalen-1-yl)-phenyl]-methanone]
16 | 20% | Cc1cc(C(=O)N2Cc3cccn3Cc3ccccc32)ccc1C1=CCCCC1C(C)(C)C (stereo not shown) [Example 34, (10,11-Dihydro-5H-pyrrolo[2,1-c][1,4]benzodiazepin-10-yl)-[4-(6-tert-butyl-cyclohex-1-en-1-yl)-3-methyl-phenyl]-methanone]

Same assay, conditions: values in parentheses, read-out: OT (IC50)

Row | IC50 | SMILES
17 | 7.74 nM | COc1cc(C2=CCCCC2)c(Cl)cc1C(=O)N1Cc2cccn2Cc2ccccc21 [Example 1, 10-(5-Chloro-4-cyclohex-1-en-1-yl-2-methoxybenzoyl)-10,11-dihydro-5H-pyrrolo[2,1-c][1,4]benzodiazepine]
18 | 21.8 nM | CC1CCCC=C1c1ccc(C(=O)N2Cc3cccn3Cc3ccccc32)cc1 (stereo not shown) [Example 16, (10,11-Dihydro-5H-pyrrolo[2,1-c][1,4]benzodiazepin-10-yl)-[4-(6-methyl-cyclohex-1-en-1-yl)-phenyl]-methanone]
19 | 24 nM | Cc1cc(C(=O)N2Cc3cccn3Cc3ccccc32)ccc1C1=CCCc2ccccc21 [Example 3, (10,11-Dihydro-5H-pyrrolo[2,1-c][1,4]benzodiazepin-10-yl)-[4-(3,4-dihydro-naphthalen-1-yl)-3-methyl-phenyl]-methanone]
